Data reported in patent US20200291018A1, “TAM KINASE INHIBITORS” (SYROS PHARMACEUTICALS, INC., priority 2017, published 2020).
Counter-ions that a name gives are not always drawn.

Assays:
AXL = target: T1, AXL (Homo sapiens, UniProt P30530); assay: TR-FRET kinase activity assay, AXL; assay type: biochemical; details: ATP at Km, 60 minutes
T1 sequence (P30530 26-894): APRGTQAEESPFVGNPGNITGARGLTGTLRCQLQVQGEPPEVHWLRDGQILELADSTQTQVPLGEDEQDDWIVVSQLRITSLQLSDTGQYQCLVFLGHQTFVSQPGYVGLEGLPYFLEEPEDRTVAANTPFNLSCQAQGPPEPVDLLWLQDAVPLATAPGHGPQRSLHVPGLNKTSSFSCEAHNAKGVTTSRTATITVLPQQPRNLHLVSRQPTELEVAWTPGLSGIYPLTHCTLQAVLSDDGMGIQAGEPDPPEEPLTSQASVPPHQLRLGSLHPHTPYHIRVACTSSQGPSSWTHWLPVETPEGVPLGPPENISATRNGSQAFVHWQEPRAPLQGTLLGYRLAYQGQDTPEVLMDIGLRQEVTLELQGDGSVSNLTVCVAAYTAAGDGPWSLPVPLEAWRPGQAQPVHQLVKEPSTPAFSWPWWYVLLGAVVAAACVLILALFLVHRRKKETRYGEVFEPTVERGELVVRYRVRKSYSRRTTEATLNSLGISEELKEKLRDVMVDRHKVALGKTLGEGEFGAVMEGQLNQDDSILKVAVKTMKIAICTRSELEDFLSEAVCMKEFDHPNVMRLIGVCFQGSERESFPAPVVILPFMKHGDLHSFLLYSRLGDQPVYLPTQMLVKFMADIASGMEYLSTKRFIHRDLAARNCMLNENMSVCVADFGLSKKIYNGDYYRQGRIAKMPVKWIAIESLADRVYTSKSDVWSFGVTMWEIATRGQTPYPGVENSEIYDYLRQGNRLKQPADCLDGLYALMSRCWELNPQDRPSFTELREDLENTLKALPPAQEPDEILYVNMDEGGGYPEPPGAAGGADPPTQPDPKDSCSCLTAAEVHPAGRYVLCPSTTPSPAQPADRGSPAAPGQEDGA
Method: (§1) IC50 values for compound inhibition of AXL, FLT3, MERTK and TYRO3 activity were determined using a TR-FRET activity assay. A peptide substrate with a fluorescent label is phosphorylated on a tyrosine by each enzyme, where the now phosphorylated product is bound by a Europium-labeled antibody specific to that phosphorylation site. The proximity between the antibody and the substrate gives a signal known as TR-FRET. As the enzyme is inhibited by compound, less phosphorylated peptide product is made, causing a decrease in overall signal.
(§2) Activity assays were performed in a 384-well, small volume, black microplates in an active enzyme volume of 10 uL and final developed volume of 20 uL. Final assay conditions are 50 mM HEPES pH 7.5, 10 mM MgCl2, 1 mM EGTA, 0.01% Brij 35 and 1 mM DTT, all at RT. Enzyme, substrate-labeled peptide and compound are mixed, and then the reaction is initiated with the addition of ATP at Km concentration for each enzyme. The reaction is allowed to run 60 minutes and then quenched with a 12.5 mM EDTA (ethylenediamine tetraacetic acid) solution. The plate is then developed with the addition of Europium-labeled antibody for a final volume of 20 uL and is then incubated for 30 minutes in darkness. Plates are read in a PHERASTAR® plate reader. Data are analyzed in GraphPad PRISM.

TYRO3 = target: T2, TYRO3 (Homo sapiens, UniProt Q06418); assay: TR-FRET kinase activity assay, TYRO3; assay type: biochemical; details: ATP at Km, 60 minutes
T2 sequence (Q06418 41-890): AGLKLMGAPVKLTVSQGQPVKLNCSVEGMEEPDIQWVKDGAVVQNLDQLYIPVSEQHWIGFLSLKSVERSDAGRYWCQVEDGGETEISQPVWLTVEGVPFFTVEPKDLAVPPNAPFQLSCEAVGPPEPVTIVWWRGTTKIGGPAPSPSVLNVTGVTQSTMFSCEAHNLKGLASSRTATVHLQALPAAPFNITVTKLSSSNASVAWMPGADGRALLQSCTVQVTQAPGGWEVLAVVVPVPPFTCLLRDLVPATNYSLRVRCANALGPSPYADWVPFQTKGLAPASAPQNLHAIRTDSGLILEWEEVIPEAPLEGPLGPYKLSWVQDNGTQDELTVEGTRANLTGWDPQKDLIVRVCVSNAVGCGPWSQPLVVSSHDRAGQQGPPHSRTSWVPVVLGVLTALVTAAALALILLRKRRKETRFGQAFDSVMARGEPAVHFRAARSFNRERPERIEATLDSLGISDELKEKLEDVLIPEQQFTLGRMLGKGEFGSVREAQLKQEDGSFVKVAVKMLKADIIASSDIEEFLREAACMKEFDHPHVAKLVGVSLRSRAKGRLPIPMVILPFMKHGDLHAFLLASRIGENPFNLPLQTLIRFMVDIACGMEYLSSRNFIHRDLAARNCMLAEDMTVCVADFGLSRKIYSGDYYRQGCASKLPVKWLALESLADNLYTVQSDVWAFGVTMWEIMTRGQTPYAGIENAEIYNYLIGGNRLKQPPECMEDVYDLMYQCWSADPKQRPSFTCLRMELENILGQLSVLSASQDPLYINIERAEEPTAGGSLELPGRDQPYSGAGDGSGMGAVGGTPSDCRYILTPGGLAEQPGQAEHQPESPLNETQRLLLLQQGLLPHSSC
Method: as §1, §2

Row | Compound | IC50 (AXL) [nM] | IC50 (TYRO3) [nM]
1 | Cc1cc(Cl)ccc1Nc1ncc2c(OC3CCNCC3)ncc([C@H]3CC[C@H](O)CC3)c2n1 [Compound 198] | 1000 to 10000 | ≤ 100
2 | CCCC(C)Nc1ncc2c(=O)n([C@H]3CCN(C)C[C@@H]3F)cc([C@H]3CC[C@H](O)CC3)c2n1 (some centres unmarked) [Compound 199] | 1000 to 10000 | ≤ 100
3 | CCCC(C)Nc1ncc2c(=O)n([C@@H]3CCCN(C)C3)cc([C@H]3CC[C@H](O)CC3)c2n1 (some centres unmarked) [Compound 200] | 1000 to 10000 | ≤ 100
4 | CC(Nc1ncc2c(OC3CCNCC3)ncc([C@H]3CC[C@H](O)CC3)c2n1)c1ccncc1 (some centres unmarked) [Compound 202] | 1000 to 10000 | ≤ 100
5 | Cc1ccc(Cl)cc1Nc1ncc2c(OC3CCNCC3)ncc([C@H]3CC[C@H](O)CC3)c2n1 [Compound 209] | 1000 to 10000 | ≤ 100
6 | O[C@H]1CC[C@H](c2cnc(OC3CCNCC3)c3cnc(N[C@@H]4CCOC4)nc32)CC1 [Compound 213] | 100 to 1000 | 100 to 1000
7 | CCCC(C)Nc1ncc2c(O[C@@H]3CCCN(C)C3)ncc([C@H]3CC[C@H](O)CC3)c2n1 (some centres unmarked) [Compound 214] | 1000 to 10000 | ≤ 100
8 | CCOc1ncc(C2CCN(C)CC2)c2nc(N[C@@H](C)CC)ncc12 [Compound 215] | 1000 to 10000 | ≤ 100
9 | O[C@H]1CC[C@H](c2cnc(OC3CCNCC3)c3cnc(N[C@H]4CCCOC4)nc32)CC1 [Compound 216] | 1000 to 10000 | 100 to 1000
10 | CC[C@H](C)Nc1ncc2c(NC3CCOCC3)ncc([C@H]3CC[C@H](O)CC3)c2n1 [Compound 217] | 1000 to 10000 | ≤ 100
11 | C[C@@H](Nc1ncc2c(OC3CCNCC3)ncc([C@H]3CC[C@H](O)CC3)c2n1)c1ccccc1 [Compound 218] | 1000 to 10000 | 100 to 1000
12 | CC[C@H](C)Nc1ncc2c(OC3CCN(C)CC3)ncc([C@H]3CC[C@H](O)CC3)c2n1 [Compound 221] | 100 to 1000 | 100 to 1000
13 | CC[C@H](C)Nc1ncc2c(N3CC[C@@H](N(C)C)C3)ncc([C@H]3CC[C@H](O)CC3)c2n1 [Compound 222] | 100 to 1000 | ≤ 100
14 | CC[C@H](C)Nc1ncc2c(OC3C[C@H]4CC[C@@H](C3)O4)ncc([C@H]3CC[C@H](O)CC3)c2n1 (some centres unmarked) [Compound 223] | 100 to 1000 | 100 to 1000
15 | CC[C@H](C)Nc1ncc2c(=O)n(C3CCOCC3)cc([C@H]3CC[C@H](O)CC3)c2n1 [Compound 225] | 100 to 1000 | ≤ 100
16 | CC[C@H](C)Nc1ncc2c(OC3CCOCC3)ncc([C@H]3CC[C@H](O)CC3)c2n1 [Compound 226] | 100 to 1000 | 100 to 1000
17 | CCC(CC)Nc1ncc2c(OC3CCNCC3)ncc([C@H]3CC[C@H](O)CC3)c2n1 [Compound 228] | 100 to 1000 | 100 to 1000
18 | CC[C@H](C)Nc1ncc2c(O[C@H]3CC[C@H](O)CC3)ncc([C@H]3CC[C@H](O)CC3)c2n1 [Compound 229] | 100 to 1000 | 100 to 1000
19 | CC[C@H](C)Nc1ncc2c(Cl)ncc([C@H]3CC[C@H](O)CC3)c2n1 [Compound 230] | 100 to 1000 | 100 to 1000
20 | CC[C@H](C)NC1=NC2C([C@H]3CC[C@H](O)CC3)=CN(C(C)C)C(=O)C2C=N1 (some centres unmarked) [Compound 231] | 100 to 1000 | ≤ 100
21 | O[C@H]1CC[C@H](c2cnc(OC3CCNCC3)c3cnc(N[C@@H]4CCCOC4)nc32)CC1 [Compound 232] | 100 to 1000 | 100 to 1000

Results, then the compound that gave them:

Row | IC50 (AXL) [nM] | IC50 (TYRO3) [nM] | Compound
22 | ≤ 100 | ≤ 100 | CCCCNc1cc2c(cn1)c(OC1CCNCC1)ncc2[C@H]1CC[C@H](O)CC1 [Compound 107]
23 | 100 to 1000 | ≤ 100 | CCCCC[C@H](C)Nc1ncc2c(=O)n(C3CCOCC3)cc([C@H]3CC[C@H](O)CC3)c2n1 [Compound 108]
24 | 100 to 1000 | ≤ 100 | CCCCNc1cc2c(cn1)c(=O)n(C1CCNCC1)cc2[C@H]1CC[C@H](O)CC1 [Compound 109, 6-(butylamino)-4-((1r,4r)-4-hydroxycyclohexyl)-2-(piperidin-4-yl)-2,7-naphthyridin-1(2H)-one hydrochloride]
25 | 100 to 1000 | > 10000 | CC[C@@H](C)Nc1ncc2c(OC3CCN(C)CC3)ncc([C@H]3CC[C@H](O)CC3)c2n1 [Compound 195]
26 | 100 to 1000 | ≤ 100 | CCC[C@@H](C)Nc1ncc2c(OC3CCNCC3)ncc([C@H]3CC[C@H](O)CC3)c2n1 [Compound 196]
27 | ≤ 100 | ≤ 100 | Cc1cccc(Nc2ncc3c(OC4CCNCC4)ncc([C@H]4CC[C@H](O)CC4)c3n2)c1 [Compound 197]
28 | 100 to 1000 | ≤ 100 | CCCC(C)Nc1ncc2c(=O)n(C3CCN(C4COC4)CC3)cc([C@H]3CC[C@H](O)CC3)c2n1 (some centres unmarked) [Compound 201]
29 | ≤ 100 | ≤ 100 | CCCC(C)Nc1ncc2c(OC3CCNCC3)ncc([C@H]3CC[C@H](O)CC3)c2n1 (some centres unmarked) [Compound 203]
30 | 100 to 1000 | 100 to 1000 | CCC[C@@H](C)Nc1ncc2c(OC3CCNCC3)ncc([C@H]3CC[C@@H](O)CC3)c2n1 [Compound 204]
31 | ≤ 100 | ≤ 100 | O[C@H]1CC[C@H](c2cnc(OC3CCNCC3)c3cnc(Nc4cccc(Cl)c4)nc32)CC1 [Compound 205]
32 | ≤ 100 | ≤ 100 | O[C@H]1CC[C@H](c2cnc(OC3CCNCC3)c3cnc(Nc4ccc(Cl)cc4)nc32)CC1 [Compound 206]
33 | ≤ 100 | 100 to 1000 | CCc1cccc(Nc2ncc3c(OC4CCNCC4)ncc([C@H]4CC[C@H](O)CC4)c3n2)c1 [Compound 207]
34 | 100 to 1000 | 100 to 1000 | CCC[C@@H](C)Nc1ncc2c(OC3CCN(C)CC3)ncc([C@H]3CC[C@H](O)CC3)c2n1 [Compound 208]
35 | ≤ 100 | ≤ 100 | O[C@H]1CC[C@H](c2cnc(OC3CCNCC3)c3cnc(Nc4ccccc4)nc32)CC1 [Compound 210]
36 | 100 to 1000 | 100 to 1000 | O[C@H]1CC[C@H](c2cnc(OC3CCNCC3)c3cnc(NC4CCOCC4)nc32)CC1 [Compound 211]
37 | 100 to 1000 | ≤ 100 | CC(C)CNc1ncc2c(OC3CCNCC3)ncc([C@H]3CC[C@H](O)CC3)c2n1 [Compound 212]
38 | ≤ 100 | 100 to 1000 | CC[C@H](C)Nc1ncc2c(NC3CCN(C)CC3)ncc([C@H]3CC[C@H](O)CC3)c2n1 [Compound 220]
39 | ≤ 100 | 100 to 1000 | O[C@H]1CC[C@H](c2cnc(OC3CCNCC3)c3cnc(NCCC(F)(F)F)nc32)CC1 [Compound 224]
40 | ≤ 100 | ≤ 100 | CC[C@H](C)Nc1ncc2c(OC3CC(C)(C)N(C)C(C)(C)C3)ncc([C@H]3CC[C@H](O)CC3)c2n1 [Compound 227]
